Experiments:
[1] = target: T1, cystine/glutamate transporter (Homo sapiens, UniProt Q9UPY5); assay: inhibition of 3H-L-Glu uptake in DEM treated cells; assay type: cell-based; conditions: for remaining activity at 1000 µM: 0.5 h, 1 mM agent, 30 minutes uptake at room temperature, cells pretreated with 100 μM DEM overnight, triplicate, lower = inhibition of the transporter, read-out: % of contro1 3H-Glu uptake
T1 construct: endogenous in cells; host or cells: SKOV3 cells treated with 100 uM DEM (the paragraph also says 'DEM treated EL4 cells')
T1 sequence (Q9UPY5 1-501): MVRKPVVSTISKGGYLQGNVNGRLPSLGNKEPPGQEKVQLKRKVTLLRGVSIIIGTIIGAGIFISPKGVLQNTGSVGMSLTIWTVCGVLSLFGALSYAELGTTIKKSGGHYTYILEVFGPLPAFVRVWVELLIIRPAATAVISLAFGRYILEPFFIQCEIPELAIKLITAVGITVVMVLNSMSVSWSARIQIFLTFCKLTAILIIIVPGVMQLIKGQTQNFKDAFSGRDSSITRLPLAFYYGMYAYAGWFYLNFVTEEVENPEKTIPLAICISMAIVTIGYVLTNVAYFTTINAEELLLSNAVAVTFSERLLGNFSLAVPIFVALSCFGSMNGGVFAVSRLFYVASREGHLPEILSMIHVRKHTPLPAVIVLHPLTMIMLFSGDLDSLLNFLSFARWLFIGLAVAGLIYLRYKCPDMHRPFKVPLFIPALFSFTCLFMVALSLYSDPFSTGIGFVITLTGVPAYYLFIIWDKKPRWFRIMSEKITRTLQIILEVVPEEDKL
T1 sequence (P08195 2-529 partner): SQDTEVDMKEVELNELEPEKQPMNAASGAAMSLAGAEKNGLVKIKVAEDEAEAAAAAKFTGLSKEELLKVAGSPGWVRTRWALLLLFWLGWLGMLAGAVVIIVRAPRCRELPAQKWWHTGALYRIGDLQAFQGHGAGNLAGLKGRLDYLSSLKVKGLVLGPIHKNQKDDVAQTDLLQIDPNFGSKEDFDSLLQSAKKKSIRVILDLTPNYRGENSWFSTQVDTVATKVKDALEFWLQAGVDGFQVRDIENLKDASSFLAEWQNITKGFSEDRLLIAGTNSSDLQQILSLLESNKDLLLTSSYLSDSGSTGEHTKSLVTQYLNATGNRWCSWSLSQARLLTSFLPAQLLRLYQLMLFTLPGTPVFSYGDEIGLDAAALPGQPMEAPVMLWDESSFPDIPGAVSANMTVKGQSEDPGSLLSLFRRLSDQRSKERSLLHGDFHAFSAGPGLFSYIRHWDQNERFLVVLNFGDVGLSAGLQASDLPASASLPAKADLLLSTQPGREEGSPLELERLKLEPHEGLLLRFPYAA
Protocol: Following are non-limiting examples used to illustrate various embodiments of the imaging agents and methods of use. As such Table 1 provides examples of the non-labelled analog of the final product. Also provided are measurements of inhibition response of ^3H-L-GLU (control) uptake in DEM treated EL4 cells. As such 96 well plate were seeded with 100,000 SKOV3 cells/well in complete growth media (McCoy's+10% Fetal Bovine Serum(FBS)) and incubated overnight at 37° C. The media was changed to 100 μM DEM and again incubated overnight at 37° C. Wash 1× with Hank's Balanced Salt Solution (HBSS) Room Temperature and assayed 50 μl of each agent (Table 1) in triplicate by incubating for 30 minutes (uptake) at room temperature. It was then washed twice with HBSS and 200 μl MicroScint20 added for counting. The protocol used 200 uCi 3H-Glu per well. The mix and agent and ^3H-Glu provided a final concentration of 200 uCi and 1 mM agent. […] As such lower response is indicative of inhibition of the transporter. As such numbers below approximately 30% is equivalent to 70% inhibition and are considered good candidates for pharmaceutical agents.

[2] = target: T2, oxidative stress transporter (Homo sapiens, UniProt Q9UPY5); conditions: as reported in U.S. patent application Ser. No. 13/234,210; cited from earlier work
T2 sequence (Q9UPY5 1-501): T1 sequence (Q9UPY5 1-501)
T2 sequence (P08195 1-529 partner): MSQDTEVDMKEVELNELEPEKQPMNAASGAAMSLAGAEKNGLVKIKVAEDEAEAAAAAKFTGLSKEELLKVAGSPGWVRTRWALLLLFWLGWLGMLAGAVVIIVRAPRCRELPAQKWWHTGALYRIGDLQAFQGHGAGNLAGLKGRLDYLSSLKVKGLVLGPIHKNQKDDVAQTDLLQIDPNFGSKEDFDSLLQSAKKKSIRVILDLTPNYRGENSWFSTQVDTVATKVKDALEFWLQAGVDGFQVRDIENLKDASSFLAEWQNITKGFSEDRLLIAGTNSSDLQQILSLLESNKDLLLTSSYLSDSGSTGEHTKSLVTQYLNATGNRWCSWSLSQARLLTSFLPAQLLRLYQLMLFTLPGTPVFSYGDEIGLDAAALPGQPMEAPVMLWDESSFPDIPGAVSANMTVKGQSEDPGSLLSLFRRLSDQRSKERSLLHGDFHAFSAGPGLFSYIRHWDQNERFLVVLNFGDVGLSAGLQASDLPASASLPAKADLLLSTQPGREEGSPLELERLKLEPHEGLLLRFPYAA

Row | remaining activity at 1000 µM [1] [%] | uptake compared to structures 1n, 1o, or 1p (hydroxyproline stereoisomers) ([1]; comparison of the 2S,4R-hydroxyproline scaffold with the other stereoisomers) | SMILES | uptake via the oxidative stress transporter [2]
1 | 14.5 |  | CCOc1cccc(CO[C@@H]2C[C@@H](C(=O)O)N(C(=O)CC[C@H](N)C(=O)O)C2)c1 [1q] | 
2 | 84 |  | N[C@@H](CCC(=O)N1CCC[C@@H]1C(=O)O)C(=O)O [1b] | 
3 | 94.7 |  | N[C@@H](CCC(=O)N1C[C@H](O)C[C@@H]1C(=O)O)C(=O)O [1g] | 
4 | 52.3 |  | N[C@@H](CCC(=O)N1C[C@H](c2ccccc2)C[C@H]1C(=O)O)C(=O)O [1h] | 
5 | 30.9 |  | N[C@@H](CCC(=O)N1C[C@H](Cc2ccccc2)C[C@H]1C(=O)O)C(=O)O [1k] | 
6 | 36.6 |  | N[C@@H](CCC(=O)N1C[C@H](Oc2ccccc2)C[C@H]1C(=O)O)C(=O)O [1l] | 
7 | 51.8 |  | N[C@@H](CCC(=O)N1C[C@H](F)C[C@H]1C(=O)O)C(=O)O [1d] | 
8 | 33 |  | N[C@@H](CCC(=O)N1C[C@@H](Oc2ccccc2)C[C@H]1C(=O)O)C(=O)O [1j] | 
9 | 43.2 |  | N[C@@H](CCC(=O)N1C[C@@H](OCc2ccccc2)CC1C(=O)O)C(=O)O (some centres unmarked) [1o] | 
10 | 74 |  | N[C@@H](CCC(=O)N1C[C@@H](O)C[C@@H]1C(=O)O)C(=O)O [1e] | 
11 | 73.6 |  | N[C@@H](CCC(=O)N1C[C@H](O)C[C@H]1C(=O)O)C(=O)O [1c] | 
12 | 46.2 |  | N[C@@H](CCC(=O)N1C[C@@H](c2ccccc2)C[C@H]1C(=O)O)C(=O)O [1i] | 
13 | 30.8 |  | N[C@@H](CCC(=O)N1C[C@@H](O)C[C@H]1C(=O)O)C(=O)O [1f] | 
14 | 50 |  | N[C@@H](CCC(=O)N1C[C@H](OCc2ccccc2)CC1C(=O)O)C(=O)O (some centres unmarked) [1p] | 
15 |  |  | N[C@@H](CCCCCC(=O)O)C(=O)O [aminosuberic acid] | good uptake
16 | 10.1 |  | N[C@@H](CCC(=O)N1C[C@H](OCc2ccc(COCCF)cc2)C[C@H]1C(=O)O)C(=O)O [1r] | 
17 | 26.2 |  | N[C@@H](CCC(=O)N1C[C@@H](OCc2ccccc2)C[C@H]1C(=O)O)C(=O)O [1n] | 
18 | 14.9 | improved uptake | N[C@@H](CCC(=O)N1C[C@H](OCc2ccccc2)C[C@H]1C(=O)O)C(=O)O [1m] | 
19 | 46.3 |  | N[C@@H](CCC(=O)N1CCC[C@H]1C(=O)O)C(=O)O [1a] | 

Reference: patent publication US9468693B2, “Labeled molecular imaging agents and methods of use” (GENERAL ELECTRIC COMPANY, priority 2014, dated 2016)
